{"source": "paper PMC11500415", "about": "“Chemical inhibition of stomatal differentiation by perturbation of the master-regulatory bHLH heterodimer via an ACT-Like domain” (Nature Communications, 2024)", "key": {"SCRM-FAMA heterodimer": {"molecular_target": "T1, SCRM-FAMA heterodimer (Arabidopsis thaliana, UniProt Q56YJ8)", "T1 construct": "heterodimerization of SCRM with full-length SPCH, MUTE, or FAMA in the context of the plant cells; combinations of split YFP constructs fused to the full-length stomatal bHLH proteins; nYFP (N terminus of EYFP, 174 amino acids); cYFP (C terminus of EYFP, 64 amino acids); expressed in transfected cells; host or cells: Nicotiana benthamiana leaves (Agrobacterium infiltration)", "T1 sequence (Q56YJ8 1-414)": "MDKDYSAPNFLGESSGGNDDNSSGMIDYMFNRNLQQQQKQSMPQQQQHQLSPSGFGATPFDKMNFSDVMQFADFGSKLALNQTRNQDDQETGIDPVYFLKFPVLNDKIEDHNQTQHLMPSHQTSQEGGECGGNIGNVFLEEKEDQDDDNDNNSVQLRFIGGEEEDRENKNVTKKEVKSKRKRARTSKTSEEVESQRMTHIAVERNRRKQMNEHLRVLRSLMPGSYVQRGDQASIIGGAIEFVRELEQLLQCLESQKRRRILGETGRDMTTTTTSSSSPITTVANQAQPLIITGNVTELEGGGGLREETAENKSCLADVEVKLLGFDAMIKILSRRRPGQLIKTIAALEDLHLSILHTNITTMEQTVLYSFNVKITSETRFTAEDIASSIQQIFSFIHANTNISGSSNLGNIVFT", "assay": "Ratiometric BiFC in N. benthamiana leaves", "assay_type": "cell-based", "conditions": "100 μM, 1 day", "text": "(§1) For ratiometric BiFC assays, the cDNAs of SPCH, MUTE, and FAMA were cloned into the 35S CaMV promoter-driven destination vector pSPYNE, which contains the N terminus of the EYFP protein (nYFP-174 amino acids), while the cDNA of SCRM and SCRM2 was inserted into pSPYCE, which contains the C terminus of the EYFP protein (cYFP-64 amino acids) (see Supplementary Table 5 for detailed information of the constructs). The constructs were then transformed into Agrobacterium tumefaciens strain GV3101. The Agrobacterium was resuspended in infiltration buffer (10 mM MgCl2, 10 mM 2-(N-morpholino)ethanesulfonic acid [pH 5.6], and 150 µM acetosyringone). Bacterial culture densities were adjusted to a final optical density (OD600) of 1.0, and the cell suspensions were incubated at room temperature for 4 hours prior to infiltration. Equal volumes of cultures carrying the corresponding complementary pair of BiFC constructs (YFPn and YFPc), along with CaMV35S::Histone H2B-mScarlet-I3 and the silencing suppressor plasmid p19 (a gift from Dr. Sir David Baulcombe) were mixed and then co-infiltrated into 4-week-old N. benthamiana leaves. The infiltrated N. benthamiana leaves were incubated at 25 °C for 2 days. Subsequently, leaf discs were cut out and cultured in mock or in liquid 1/2 MS media in mock (DMSO) or 100 µM Stomidazolone for 1 day. Confocal imaging of N. benthamiana leaves was performed using a Leica SP8 confocal microscope using a 20X objective lens (Leica Microsystems), simultaneously capturing YFP (excitation at 518 nm and emission at 530 nm) and mScarlet-I3 (excitation at 569 nm and emission at 600 nm) differential interference contrast channels."}, "SCRM2-MUTE heterodimer": {"molecular_target": "T2, SCRM2-MUTE heterodimer (Arabidopsis thaliana, UniProt Q9M8K6)", "T2 construct": "heterodimerization of SCRM with full-length SPCH, MUTE, or FAMA in the context of the plant cells; nYFP (N terminus of EYFP, 174 amino acids); expressed in transfected cells; host or cells: Nicotiana benthamiana leaves (Agrobacterium infiltration)", "T2 sequence (Q9M8K6 whole entry, one chain of several)": "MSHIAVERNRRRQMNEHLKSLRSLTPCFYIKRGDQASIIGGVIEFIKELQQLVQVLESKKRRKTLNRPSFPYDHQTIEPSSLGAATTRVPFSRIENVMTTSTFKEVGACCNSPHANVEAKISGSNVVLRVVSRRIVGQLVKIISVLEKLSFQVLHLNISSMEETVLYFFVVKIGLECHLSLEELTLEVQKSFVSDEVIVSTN", "assay": "Ratiometric BiFC in N. benthamiana leaves", "assay_type": "cell-based", "conditions": "100 µM", "text": "as §1"}, "[1]": {"test_system": "Arabidopsis WT seedlings on solid MS media", "assay": "Stomatal development bioassay on solid media", "assay_type": "in vivo", "conditions": "for MI (%) meristemoid index / SI (%) stomatal index: solid culture, cotyledon abaxial epidermis, individual seedlings", "protocol": "Arabidopsis accession Columbia (Col-0) was used as wild-type. […] Their genotype and transcript reduction were confirmed. The presence of transgenes/mutant alleles were confirmed by genotyping. For liquid culture with Stomidazolone (AYSJ929, compound 3), the analogs (AYSJ1059 (compound 5) and AYSJ1061 (compound 6)), degraded compound lzx103 (compound 4), and SIM3* (compound 7), all compounds were dissolved in dimethyl sulfoxide (DMSO, Molecular biology grade, Fujifilm Wako, Japan 046-21981), Col-0 seeds were sown in 96-well plates (TL5003; True Line) containing 95 μL of 1/2 MS media containing 0.5% sucrose with rotary shaking at 140 rpm under continuous light at 22 °C. Five μL of compounds were dissolved in DMSO at 10 mM and diluted with liquid 1/2 MS media to 1 mM and added on 1-day-old seedlings (final concentration, 50 μM). Seedlings were incubated for 8 days, and at day 9 seedling abaxial cotyledons were observed through confocal microscopy. For liquid culture of scrm-D_S343 and scrm-D_S423, 1/2 MS liquid media without sucrose was used. For the solid culture, 0, 20, 50 or 100 μM Stomidazolone were solidified with low-melting agarose (5805S, PrimeGelTM Agarose LMT 1-20 K, TAKARA Bio). Briefly, 1/2 MS salt, 0.5% sucrose, and 0.8% low melting agarose were mixed in water and autoclaved. After cooling the medium at around 30 °C, Stomidazolone (500x, dissolved in DMSO) was added and poured into 90 mm petri dishes (Asnol Petri Dish JP φ90 x 15 mm, 3-1491-01, AS ONE). Col-0 seeds were sown on Stomidazolone-containing 1/2 MS agarose media and grown under continuous light for 9 days.\nFor quantitative analysis of the abaxial leaf epidermis, confocal images were taken on the days after germination as indicated in the Figure legends. Preparation of images was done as described previously[32],[70]. For counting epidermal cell types, stomatal density, stomatal precursor cells (meristemoids), total stomata-lineage cells (stomata and meristemoids) were calculated by counting cell types in an area of 0.4 mm^2 (0.63 mm × 0.63 mm) and plotted as per mm^2. A series of Z-stack confocal images was obtained to obtain images covering the epidermis and capturing GFP/YFP signal from the reporter lines. The area and the number of epidermal cells were quantified by using FIJI-ImageJ. Statistical analyses were performed using R ver. 4.0.2. Sample sizes (n) are indicated and defined in each legend. For the multiple sample comparison, 1-way ANOVA was performed followed by a post hoc Tukey HSD test. For the two-sample comparison, Student’s T-test was performed. Graphs were generated using R ggplot2 package. For all boxplots, each box represents IQR (interquartile range), in which top, middle line, and bottom indicating 75, 50, and 25 percentiles, respectively, and the bar representing maximum to minimal values. Each magenta dot represents jittered individual data point. The datapoints that go beyond the bar are outliers, which are indicated as black dots. If the data point is greater than Q3 + 1.5*IQR (above the third quartile is greater than 1.5 times of the interquartile range) or less than Q1 − 1.5*IQR, that data point is classified as outlier. The color of Boxplot graph was based on ColorBrewer.org. The value of n, the number of each experiment or samples, the means of error bars, and how statistical significance was defined are indicated in a relevant figure legend. See Source Data for quantitative data underlying each figure."}}, "note": "Several values for one entry are separate records, joined by “and”; a condition that tells them apart may be missing. Equal values may be shown once. Entries after “also recorded” stand apart in the source; their conditions may differ."}
{"smiles": "O=C1C(c2ccccc2)=NC(NS(=O)(=O)c2ccccc2)(c2ccccc2)N1S(=O)(=O)c1ccccc1", "note": "(centres unmarked) [Stomidazolone]", "values": [{"measurement": "effect on heterodimerization, YFP/RFP signal ratio (in words)", "setting": "SCRM-FAMA heterodimer", "result": "not affecting"}, {"measurement": "effect on heterodimerization (in words)", "setting": "SCRM2-MUTE heterodimer", "result": "abolished"}, {"measurement": "MI (%) meristemoid index", "setting": "[1]; 20 uM", "result": "2.39% and 0% and 2.612% and 2.336% and 2.778% and 1.339% and 0.4219% and 0.7905%"}, {"measurement": "SI (%) stomatal index", "setting": "[1]; 20 uM", "result": "22.3108% and 29.661% and 27.2388% and 24.7664% and 32.1429% and 24.5536% and 35.443% and 19.7628%"}, {"measurement": "MI (%) meristemoid index", "setting": "[1]; 50 uM", "result": "0% and 2.954% and 0.8658% and 1.852% and 0.4878% and 0.5208% and 2.991%"}, {"measurement": "SI (%) stomatal index", "setting": "[1]; 50 uM", "result": "27.027% and 21.097% and 20.3463% and 25.9259% and 27.9412% and 25.8537% and 27.6042% and 20.9402%"}, {"measurement": "MI (%) meristemoid index", "setting": "[1]; 100 uM", "result": "2.4% and 0.7812% and 3.364% and 2.326% and 0.4717% and 8.069% and 4.2623% and 3.509%"}, {"measurement": "SI (%) stomatal index", "setting": "[1]; 100 uM", "result": "20.4% and 25% and 12.844% and 16.2791% and 24.0566% and 14.9856% and 17.377% and 15.4386%"}, {"measurement": "effect on seedling growth", "setting": "[1]; solid media, 100 μM (Supplementary Fig. 2d)", "result": "subtle growth retardation"}, {"measurement": "effect on stomatal differentiation (in words)", "setting": "[1]; solid media, 20, 50, 100 μM (Supplementary Fig. 2a-c)", "result": "inhibited stomatal differentiation in a dose-dependent manner"}, {"measurement": "effect on seedling morphology / growth", "setting": "[1]; solid media, 20 and 50 μM (Supplementary Fig. 2d)", "result": "does not impact; also recorded: does not affect growth"}]}
